Test [1] deals with all MMPs tested. Conditions: read-out: IC50's on all MMPs tested; cited from earlier work.
Test [2] has as its target T1, MMP-2 (Homo sapiens, UniProt P08253).
T1 construct: Human MMP-2 full length (aa 1-660)
T1 sequence (P08253 30-660): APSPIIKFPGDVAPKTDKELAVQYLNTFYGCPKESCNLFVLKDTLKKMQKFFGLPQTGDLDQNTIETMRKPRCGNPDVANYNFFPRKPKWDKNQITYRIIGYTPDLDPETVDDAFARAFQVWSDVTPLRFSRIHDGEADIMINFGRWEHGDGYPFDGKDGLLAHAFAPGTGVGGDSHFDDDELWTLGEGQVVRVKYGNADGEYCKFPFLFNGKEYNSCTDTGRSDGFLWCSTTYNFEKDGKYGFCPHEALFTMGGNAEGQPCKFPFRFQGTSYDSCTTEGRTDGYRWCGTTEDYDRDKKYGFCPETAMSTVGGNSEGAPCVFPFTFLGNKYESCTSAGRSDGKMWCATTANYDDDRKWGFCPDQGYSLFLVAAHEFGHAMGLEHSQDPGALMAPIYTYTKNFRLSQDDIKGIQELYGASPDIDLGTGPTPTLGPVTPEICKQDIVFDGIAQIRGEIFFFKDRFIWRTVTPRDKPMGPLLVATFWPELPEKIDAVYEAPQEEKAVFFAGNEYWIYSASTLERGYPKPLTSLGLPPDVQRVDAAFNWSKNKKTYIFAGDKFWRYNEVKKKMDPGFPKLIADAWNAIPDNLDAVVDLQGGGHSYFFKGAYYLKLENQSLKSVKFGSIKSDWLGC
As to the kind of experiment: MMP enzymatic assay (Trupoint peptide), MMP-2. The test is classed as biochemical.

Test [3] concerns the target T2, MMP-9 (Homo sapiens, UniProt P14780).
T2 construct: Human MMP-9 catalytic domain (aa 107-446)
As to the kind of experiment: MMP enzymatic assay (Trupoint peptide), MMP-9. The class given is biochemical.

Like-named read-outs stand apart in the source and are kept apart here.

The text below walks through data of patent publication US7803793B2, “Heterocyclic derived metalloprotease inhibitors” (Janssen Pharmaceutica NV, priority 2006, dated 2010).

T2 sequence (P14780 107-446): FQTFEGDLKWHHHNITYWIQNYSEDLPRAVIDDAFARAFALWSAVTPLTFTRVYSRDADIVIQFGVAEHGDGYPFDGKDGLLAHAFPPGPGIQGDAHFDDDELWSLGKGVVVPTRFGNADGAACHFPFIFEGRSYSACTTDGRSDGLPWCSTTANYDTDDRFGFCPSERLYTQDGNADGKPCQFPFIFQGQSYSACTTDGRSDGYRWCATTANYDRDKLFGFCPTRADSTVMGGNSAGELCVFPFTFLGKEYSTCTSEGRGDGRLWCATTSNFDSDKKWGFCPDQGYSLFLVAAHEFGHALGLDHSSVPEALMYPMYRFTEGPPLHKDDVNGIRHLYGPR

What is called IC50 is the concentration needed to halve the response being measured. As to `CNC(=O)[C@H](Cc1c[nH]c2ccccc12)NC(=O)[C@H](Cc1ccccc1)C1OCCN(O)C1=O` (some centres unmarked), the IC50 in test [1] is 20100 to 104000 nM.

For the compound `O=C1C(S(=O)(=O)c2ccc(-c3nc4cc(C(F)(F)F)ccc4[nH]3)cc2)CCCCN1O` (centres unmarked) [Compound 74, 1-Hydroxy-3-[4-(5-trifluoromethyl-1H-benzoimidazol-2-yl)-benzenesulfonyl]-azepan-2-one], the half-inhibitory concentration (IC50) in test [2] and in test [3] was over 1000 nM throughout.

In the case of `Cc1ccc2[nH]c(-c3ccc(S(=O)(=O)C4CCCCN(O)C4=O)cc3)nc2c1` (centres unmarked) [Compound 75, 1-Hydroxy-3-[4-(5-methyl-1H-benzoimidazol-2-yl)-benzenesulfonyl]-azepan-2-one], the IC50 in test [2] and in test [3] was over 1000 nM throughout.

Consider `N#Cc1ccc2[nH]c(-c3ccc(S(=O)(=O)C4CCCCN(O)C4=O)cc3)nc2c1` (centres unmarked) [Compound 76, 2-[4-(1-Hydroxy-2-oxo-azepane-3-sulfonyl)-phenyl]-1H-benzimidazole-5-carbonitrile], for which the IC50 in test [2] and in test [3] was over 1000 nM each time.

Regarding `COc1ccc2[nH]c(-c3ccc(S(=O)(=O)C4CCCCN(O)C4=O)cc3)nc2c1` (centres unmarked) [Compound 77, 1-Hydroxy-3-[4-(5-methoxy-1H-benzoimidazol-2-yl)-benzenesulfonyl]-azepan-2-one], the concentration for half-maximal inhibition (IC50) in test [2] and in test [3] was over 1000 nM in each case.

`O=C1C(S(=O)(=O)c2ccc(-c3nc4cc(F)ccc4[nH]3)cc2)CCCCN1O` (centres unmarked) [Compound 78, 3-[4-(5-Fluoro-1H-benzoimidazol-2-yl)-benzenesulfonyl]-1-hydroxy-azepan-2-one]: the IC50 in test [2] (read-out: MMP-2 nM IC50) was determined as 377 nM; in test [3] it was 846 nM.

For the compound `O=C1C(S(=O)(=O)c2ccc(F)cc2)CCCCN1O` (centres unmarked) [Compound 79, 3-(4-Fluoro-benzenesulfonyl)-1-hydroxy-azepan-2-one], the IC50 in test [2] and in test [3] was over 1000 nM each time.

As to `O=C1C(S(=O)(=O)c2ccc(Br)cc2)CCCCN1O` (centres unmarked) [Compound 81, 3-(4-Bromo-benzenesulfonyl)-1-hydroxy-azepan-2-one], the IC50 in test [2] and in test [3] was over 1000 nM each time.

For `O=C1C(S(=O)(=O)c2ccc(-c3ccc(Cl)cc3)cc2)CCCCN1O` (centres unmarked) [Compound 82, 3-(4′-Chloro-biphenyl-4-sulfonyl)-1-hydroxy-azepan-2-one], the IC50 in test [2] and in test [3] was over 1000 nM each time.

Regarding `O=C1C(S(=O)(=O)c2ccc(-c3ccccc3)cc2)CCCCN1O` (centres unmarked) [Compound 83, 3-(Biphenyl-4-sulfonyl)-1-hydroxy-azepan-2-one], the IC50 in test [2] and in test [3] was over 1000 nM in each case.

For the compound `N#Cc1ccc(-c2ccc(S(=O)(=O)C3CCCCN(O)C3=O)cc2)cc1` (centres unmarked) [Compound 84, 4′-(1-Hydroxy-2-oxo-azepane-3-sulfonyl)-biphenyl-4-carbonitrile], the concentration for half-maximal inhibition (IC50) in test [2] and in test [3] was over 1000 nM throughout.

`Cc1ccc(-c2ccc(S(=O)(=O)C3CCCCN(O)C3=O)cc2)cc1` (centres unmarked) [Compound 86, 1-Hydroxy-3-(4′-methyl-biphenyl-4-sulfonyl)-azepan-2-one]: the IC50 in test [2] and in test [3] was over 1000 nM throughout.

In the case of `O=c1c(N(CCN2CCOCC2)S(=O)(=O)c2ccc(Oc3ccc(Cl)cc3)cc2)cccn1O` [Compound 87, 4-(4-Chloro-phenoxy)-N-(1-hydroxy-2-oxo-1,2-dihydro-pyridin-3-yl)-N-(2-morpholin-4-yl-ethyl)-benzenesulfonamide], the 50% inhibitory concentration (IC50) was determined as 5 nM in test [2] (read-out: MMP-2 nM IC50) and 4.2 nM in test [3].

For the compound `Cc1ccc(-c2ccc(S(=O)(=O)N[C@@H]3CC=CCN(O)C3=O)s2)cc1` [Compound 90], the IC50 in test [2] stood at 4.2 nM; in test [3], 8.6 nM.

Turning to `Cc1ccc(C#Cc2ccc(S(=O)(=O)N(CCN3CCOCC3)C3CC=CCN(O)C3=O)s2)cc1` (centres unmarked) [Compound 91], the IC50 in test [2] was 2.2 nM; in test [3], 0.6 nM.

On to `O=C1C(NS(=O)(=O)c2ccc(Oc3ccc(Cl)cc3)cc2)CCCCN1O` (centres unmarked) [Compound 92], for which the half-inhibitory concentration (IC50) in test [2] came out at 3.7 nM; in test [3] it was 5.9 nM.

Take `O=C1C(N(CCN2CCOCC2)S(=O)(=O)c2ccc(-c3ccc(Cl)cc3)s2)CC=CCN1O` (centres unmarked) [Compound 93]: the IC50 came to 16.4 nM in test [2] and 17.2 nM in test [3].

As for `O=C1C(CS(=O)(=O)c2ccc(Oc3ccccc3)cc2)NCCCN1O` (centres unmarked) [Compound 94], the results for the IC50 in test [2] and in test [3] were 36.8 nM and 21.1 nM, respectively.

As to `O=C1C(S(=O)(=O)c2ccc(-c3ccc(F)cc3)cc2)CCCCN1O` (centres unmarked) [Compound 95], the IC50 in test [2] is 584 nM; in test [3], 1190 nM.

For the compound `COc1ccc(S(=O)(=O)Cc2cccn(O)c2=O)cc1` [Compound 96], the concentration for half-maximal inhibition (IC50) in test [2] and in test [3] was over 1000 nM in each case.

As for `COc1ccc(Oc2ccc(S(=O)(=O)Cc3cccn(O)c3=O)cc2)cc1` [Compound 97], the half-inhibitory concentration (IC50) in test [2] (read-out: MMP-2 nM IC50) came out at 17.3 nM; in test [3], 7.26 nM.

For `O=c1c(N(CCN2CCSCC2)S(=O)(=O)c2ccc(Oc3ccc(Cl)cc3)cc2)cccn1O` [Compound 98], the half-maximal inhibitory concentration (IC50) in test [2] (read-out: MMP-2 nM IC50) came out at 6.1 nM; in test [3] it was 4.9 nM.

Turning to `CN1CCN(CCN(c2cccn(O)c2=O)S(=O)(=O)c2ccc(Oc3ccc(Cl)cc3)cc2)CC1` [Compound 99], the IC50 came to 1.7 nM in test [2] (read-out: MMP-2 nM IC50) and 1.3 nM in test [3].

For the compound “N-(1-Hydroxy-2-oxo-1,2-dihydro-pyridin-3-yl)-N-methyl-4-p-tolyloxy-benzene-sulfonamide [Compound 26]”, the figures for the IC50 in test [2] (read-out: MMP-2 nM IC50) and in test [3] were 6.1 nM and 3.4 nM, respectively.
